Source: paper PMC3409115, “Diverse Inhibitor Chemotypes Targeting Trypanosoma cruzi CYP51” (PLoS Neglected Tropical Diseases, 2012)
pEC50: −log10 of the molar value. Where two headings read alike, the source gives them in different places.

Assays:
[1] = system: host cell (skeletal myoblasts, bovine embryo skeletal muscle or C2C12); assay: Host cell toxicity in the cross-validation assay; format: cell-based; conditions: host cells in cross-validation assay, up to 10 µM
Description: (§1) Compound cross-validation in T. cruzi infected skeletal myoblasts (bovine embryo skeletal muscle or C2C12 lineage) was performed according to the protocol adapted from Engel and co-authors. Compounds stored as 10 mM stocks in DMSO were freshly diluted immediately prior to use. […] To prepare plates for the assay, skeletal myoblasts cultured in […] flasks were washed once with phosphate buffered saline (PBS) and then incubated with 0.25% trypsin in PBS for 1–3 minutes for detachment. The trypsin solution was removed and myoblasts were released from the flask bottom. Fresh medium was added and cell concentration was determined using a Neubauer hemocytometer. Myoblasts in 50 µl of culture medium were transferred to the clear-bottom wells of black 96-well plates (Greiner Bio-One, #655090) at a density of 1500 cells/well and infected with 50 µl trypomastigote culture at 7500 parasites/well (1∶5 ratio). The cells were allowed to adhere and spread for 24 h in the incubator before the media was removed and 100 µl of fresh medium containing 0, 0.04, 0.12, 0.37, 1.10, 3.30 or 10 µM of test compound was added to each well, followed by 72 h incubation at 37°C in an atmosphere of 5% CO2. Posaconazole was used as a positive control at the same concentrations as the test compounds. The cells were then fixed by adding 100 µl/well of 8% formaldehyde in PBS, resulting in a 4% working concentration of formaldehyde. To stain the nucleus of the host cell and the nucleus and kinetoplast of parasites, cell membranes were first permeabilized by washing once with 100 µl of 0.1% Triton X-100 in PBS, then treated for 1 h with 0.2 µg/ml of the fluorescent DNA dye, 4,6-diamidino-2-phenylindole (DAPI), followed by one wash with PBS. The fixed plates were kept at 4°C and protected from light until images were acquired.
(§2) Plates were allowed to equilibrate to room temperature and images were acquired by the IN Cell Analyzer 2000 (GE Healthcare) with a 20× objective, 5 fields per well, with 350/50 nm and 460/40 nm fluorescent excitation and emission filters. In the absence of drug cytotoxicity, at least 800 cells were imaged and counted per well. The images were processed and analyzed by IN Cell Analyzer Developer 1.6 software. The size parameters used to segment host and parasite organelles were 125 µm^2 for host nucleus, and 1–2 µm^2 for parasite nucleus/kinetoplast. Since DAPI also strongly stains host heterochromatin regions that display as shapes resembling parasites ( Figure 3 ), particles co-localized to host nuclei were excluded from quantification, while parasite aggregates near the host nucleus were counted as infected cells. Numbers of host cells and intracellular amastigotes were determined based on host cell and parasite nucleus and parasite kinetoplast quantification, providing a measure of growth inhibition during the first 72 h of post-infection treatment compared to untreated controls.
^aToxicity was assessed as the highest percentage of host cell growth inhibition caused by compound treatment. Scores are assigned as 1-<20%; 2-21-30%; 3- 31-40%; 4-41-50% and 5->50% growth inhibition.

T. cruzi CYP51 = biological target: T1, T. cruzi CYP51 (Trypanosoma cruzi, UniProt Q7Z1V1); assay: HTS spectral-mode binding screen, type II difference spectra scored 0-5
T1 construct: had the first 21 residues upstream of K22 replaced with the fragment MAKKKKK; His6 (C); made in house
T1 sequence (Q7Z1V1 15-481, looked up, natural form): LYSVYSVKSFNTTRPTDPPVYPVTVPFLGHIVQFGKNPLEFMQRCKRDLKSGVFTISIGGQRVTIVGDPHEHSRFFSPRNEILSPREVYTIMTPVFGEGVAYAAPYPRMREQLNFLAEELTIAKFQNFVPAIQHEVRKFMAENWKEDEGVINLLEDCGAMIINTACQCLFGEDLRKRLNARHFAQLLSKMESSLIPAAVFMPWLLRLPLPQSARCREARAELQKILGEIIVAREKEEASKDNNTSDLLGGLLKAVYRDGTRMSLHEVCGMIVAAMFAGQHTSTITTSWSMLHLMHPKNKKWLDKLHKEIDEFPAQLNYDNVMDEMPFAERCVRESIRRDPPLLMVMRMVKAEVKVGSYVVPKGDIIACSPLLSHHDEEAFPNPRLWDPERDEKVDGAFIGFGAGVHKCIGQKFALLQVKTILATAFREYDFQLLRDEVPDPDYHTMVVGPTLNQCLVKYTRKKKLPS

[2] = system: T. cruzi-infected skeletal myoblasts (intracellular amastigotes); assay: Hit cross-validation in T. cruzi-infected mammalian cells (image-based assay); format: cell-based, Trypanosoma cruzi
Description: Bovine embryo skeletal muscle cells or mouse C2C12 myoblasts (ATCC#CRL-1772) used in the cross-validation assay, were cultivated respectively in RPMI 1640 medium supplemented with 5% horse serum and Dulbecco's Modified Eagle's Medium H-21 containing 4.5 g/l glucose (DMEM H-21) (Cell Culture Facility, UCSF), supplemented with 5% fetal bovine serum (FBS) (Sigma Chemical Co., St. Louis, MO, USA), 25 mM HEPES, 2 mM L-glutamine, 100 U/ml penicillin, 100 µg/ml streptomycin. T. cruzi CAI-72 trypomastigotes were obtained from supernatant of infected cultures 4 to 7 days post-infection. Cultures were maintained at 37°C in an atmosphere of 5% CO2. To harvest parasites, the supernatant of infected cultures containing released trypomastigotes was collected and centrifuged at 600 rpm for 5 min to remove cell debris; the pellet was then discarded and the trypomastigotes remaining in the media were concentrated by spinning the culture tubes at 3300 rpm for 15 minutes. The parasite pellet was re-suspended in 2–5 ml of fresh media. Trypomastigote concentration was determined using a Neubauer hemocytometer.
as §1
as §2, with “cells.” for “cells. Numbers of host cells and intracellular amastigotes were determined based on host cell and parasite nucleus and parasite kinetoplast quantification, providing a measure of growth inhibition during the first 72 h of post-infection treatment compared to untreated controls.”

[3] = spectral mode, four serial dilutions 2 µM to 12.5 µM, 2 µM CYP51
[4] = Trypanosoma cruzi, Myoblast, 72 h, read-out: EC50 against T. cruzi parasites in HTS assay used to rank order the hits
[5] = type II difference spectra scored 0-5, second highest rated hit compound cluster
[6] = Trypanosoma cruzi, Myoblast, 72 h, T. cruzi-infected myoblasts, 72 h treatment, read-out: EC50 against T. cruzi parasites in HTS assay used to rank order the hits
[7] = T. cruzi-infected myoblasts, 72 h treatment, read-out: EC50 against T. cruzi parasites in HTS assay used to rank order the hits

| Compound | Toxicity score (highest percentage of host cell growth inhibition) [1] | HTS binding score (T. cruzi CYP51; [3]) | pEC50 [2, 4] | HTS binding score (T. cruzi CYP51; [5]) | pEC50 [2, 6] | pEC50 [2, 7] | pEC50 ([2]; Trypanosoma cruzi, Myoblast, 72 h, read-out: EC50 averaged from two independent cross-validation assays for individually repurchased hits) |
| --- | --- | --- | --- | --- | --- | --- | --- |
| Cc1ccc(CNC(=O)C(=O)NCC(c2cccnc2)N2CCN(Cc3ccccc3)CC2)cc1 (centres unmarked) [Compound 14] | 4 (4-41-50%) | 2 | 5.78 |  |  |  |  |
| O=C(c1ccc(Cl)cc1Cl)C(c1cccnc1)C(O)C(Cl)(Cl)Cl (centres unmarked) [Compound 34] | 2 (2-21-30%) | 5 | 5.16 |  |  |  |  |
| CCOC(=O)C1=C(N)Oc2ccc3ccccc3c2C1c1cccnc1 (centres unmarked) [Compound 51] | 1 (1-<20%) | 2 |  | 2 | 5.07 |  |  |
| c1ccc2c(c1)-c1ccccc1C2n1ccnc1 [Compound 36] | 3 (3- 31-40%) | 1 | 5.14 |  |  |  |  |
| CC(C)=CCCC1=CCC2(COC(c3cccnc3)OC2)C(C)C1 (centres unmarked) [Compound 31] | 1 (1-<20%) | 2 | 5.19 |  |  |  |  |
| OC(/C=C/c1ccccc1)(Cn1ccnc1)c1ccncc1 (centres unmarked) [Compound 12] | 1 (1-<20%) | 1 | 5.96 |  |  |  |  |
| Cc1ccc(OCC(=O)ONC(=N)c2cccnc2)c(Br)c1 [Compound 54] | 1 (1-<20%) | 3 | 5.02 |  |  |  |  |
| OC(c1ccccc1)(c1ccccc1)c1c[nH]cn1 [Compound 47] | 2 (2-21-30%) | 3 | 5.08 |  |  |  |  |
| CCCCNC(=O)c1cc(-c2ccncc2)nc2ccccc12 [Compound 50] | 4 (4-41-50%) | 5 | 5.08 |  |  |  |  |
| CC1=C(C(=O)OC2CCCC2)C(c2ccncc2)C2=C(O)CC(C)(C)CC2=N1 (centres unmarked) [Compound 2] | 4 (4-41-50%) |  |  | 4 | 6.51 | 6.51 |  |
| CCOC(=O)C1=C(C)N(C)C(C)=C(C(=O)OCC)C1c1ccncc1 [Compound 29] | 1 (1-<20%) | 5 | 5.29 |  |  |  |  |
| c1ccc(CC(NCc2ccncc2)c2ccccc2)cc1 (centres unmarked) [Compound 27] | 1 (1-<20%) | 5 | 5.32 |  |  |  |  |
| Brc1ccc(-c2csc(-c3ccncc3)n2)cc1 [Compound 18] | 1 (1-<20%) | 3 | 5.62 |  |  |  |  |
| O=C(/C=C/c1cccs1)c1ccncc1 [Compound 56] | 3 (3- 31-40%) | 3 | 5.02 |  |  |  |  |
| Cc1ccc(NC(=O)c2sc3nc(-c4ccncc4)ccc3c2N)cc1Cl [Compound 22] | 2 (2-21-30%) | 2 | 5.54 |  |  |  |  |
| N#C/C(=C\C=C\c1ccccc1)C(=O)NCc1cccnc1 [Compound 49] | 1 (1-<20%) | 3 | 5.08 |  |  |  |  |
| CN(C)C(C/N=C(\S)NCCc1ccccc1)c1cccnc1 (centres unmarked) [Compound 46] | 1 (1-<20%) | 1 | 5.09 |  |  |  |  |

| Compound | Toxicity score (highest percentage of host cell growth inhibition) [1] | HTS binding score (T. cruzi CYP51; [3]) | pEC50 [2, 4] | HTS binding score (T. cruzi CYP51; [5]) | pEC50 [2, 6] | pEC50 [2, 7] | pEC50 ([2]; Trypanosoma cruzi, Myoblast, 72 h, read-out: EC50 averaged from two independent cross-validation assays for individually repurchased hits) |
| --- | --- | --- | --- | --- | --- | --- | --- |
| OC(/C=C/c1cccc(C(F)(F)F)c1)(Cn1ccnc1)c1cccnc1 (centres unmarked) [Compound 23] | 1 (1-<20%) | 1 | 5.54 |  |  |  |  |
| CCn1c(C(=O)NCc2cccnc2)cc2oc3ccccc3c21 [Compound 16] | 4 (4-41-50%) |  | 5.66 |  |  |  |  |
| CCc1ccc(-c2cc3c(=O)n(CC(=O)NCc4cccnc4)nc(C)n3n2)cc1 [Compound 42] | 3 (3- 31-40%) | 2 | 5.11 |  |  |  |  |
| CC(C)(C)/C(=C\n1ccnc1)c1ccc(C(F)(F)F)cc1 [Compound 8] | 3 (3- 31-40%) |  |  |  | 6.12 | 6.12 |  |
| COc1ccc(CNc2nc3ccccc3c3nc(-c4ccncc4)nn23)cc1 [Compound 15] | 3 (3- 31-40%) | 5 | 5.71 |  |  |  | 5.71 |
| Cc1ccc2nc(NC(=O)C3CCN(S(=O)(=O)c4cccnc4)CC3)sc2c1 [Compound 39] | 1 (1-<20%) |  | 5.12 |  |  |  |  |
| Nc1c(C(=O)NCCc2c[nH]c3ccccc23)sc2nc(-c3cccnc3)ccc12 [Compound 57] | 1 (1-<20%) | 2 | 5.01 |  |  |  |  |
| C/C(=N\OC(=O)c1c(-c2ccccc2Cl)noc1C)c1ccncc1 [Compound 33] | 3 (3- 31-40%) |  | 5.17 |  |  |  |  |
| Cn1c(SCc2nc(-c3ccc(Cl)cc3)no2)nnc1-c1ccncc1 [Compound 40] | 1 (1-<20%) | 5 | 5.11 |  |  |  |  |
| O=C(/C(=C/c1ccc(F)cc1)n1cncn1)c1ccc(Cl)cc1Cl [Compound 43] | 3 (3- 31-40%) |  | 5.11 |  |  |  |  |
| Cc1ccc(OCCCCCn2ccnc2)cc1C [Compound 4] | 3 (3- 31-40%) |  |  |  | 6.26 | 6.26 |  |
| N#CC1=C(N)OC2=C(C(=O)CC(c3ccccc3)C2)C1c1cccnc1 (centres unmarked) [Compound 7] | 4 (4-41-50%) | 3 |  | 3 | 6.17 | 6.18 |  |
| Cc1ccc(/C(=C\n2ccnc2)c2ccccc2)cc1 [Compound 10] | 4 (4-41-50%) |  |  |  | 6.02 | 6.04 |  |
| Cc1ccc(OCCCn2ccnc2)c(C)c1 [Compound 45] | 3 (3- 31-40%) | 5 |  |  | 5.10 |  |  |
| Brc1ccc(OCCCn2ccnc2)cc1 [Compound 25] | 2 (2-21-30%) |  |  |  | 5.44 |  |  |
| Clc1ccc(Cl)c(SCCc2ccncc2)c1 [Compound 38] | 2 (2-21-30%) |  | 5.13 |  |  |  |  |
